Results taken from patent US20050009005A1, “Methods of using quantitative lipid metabolome data” (Lipomics Technologies, Inc., priority 2001, published 2005).

Test system: de novo fatty acid synthesis
Experiment: Lipid metabolite profile of plasma, heart, liver and inguinal adipose of CL316,243-treated mice (trial 2; Tables 7 and 8)
Format: in vivo
Details: for 14:0 / 16:0 / 16:1n7 / 18:0 / 18:1n7 / 18:1n9 / Saturates / Total / Total n7 / Total n9 / Total nMole of FA: mean
Source text: It is understood that the described methods can be used to analyze lipid metabolites from other subjects, including particularly animals other than mice.
Mouse tissue and plasma samples were a generous donation to Lipomics Technologies, Inc., from Dr. Edward Leiter of the Jackson Laboratory (Bar Harbor, Me.). Samples included the plasma, heart, liver and inguinal adipose of mice treated with pharmaceuticals or their corresponding controls.
In trial 2, male, inbred NON mice were fed a control with or without the presence of the β-3 adrenergic agonist CL316,243 for four weeks (at 0.001% CL316,243 by weight in the dietary chow).
In both studies, five treated and five control mice were used. Following the treatments and the killing of the mice, tissues and plasma were taken, chilled to −80 ° C. and shipped to the analysis laboratory at Lipomics Technologies in a frozen state.
Tissue processing and lipid extraction, including provision of internal standards, was carried out essentially as described in Watkins et al. (J. Lipid Res. Papers in Press, 10.1184/jlf.M200169-JLF200, published August 16, 2002), and in co-owned international application PCT/US02/21426, entitled “GENERATING, VIEWING, INTERPRETING, AND UTILIZING A QUANTITATIVE DATABASE OF METABOLITES,” both of which are incorporated in their entirety herein by reference.
The separation of lipid classes was performed in some instance by preparative thin-layer chromatography (TLC). To remove any residual metal or other damaging contaminants on the TLC plates, each plate was washed prior to use. Washing the plates is a three-step process that involves impregnating each plate with ethylenediamine tetraacetic acid (EDTA) and rinsing the plates once with methanol and once with chloroform. Each plate is first impregnated with 1 mM EDTA, pH 5.5, by ascending development using the method of Ruiz (J. Lipid Res. 38, 1482-1489, 1997). After each plate was completely developed, it was dried in air overnight. Once dry, each plate was developed in methanol, dried, and developed in chloroform in the same direction as the development with EDTA. The washed plates were then dried in air. Just prior to use, each plate was activated by heating to 110° C. for 10 minutes.
To prepare the TLC chamber for chromatography, Whatman (Clifton, N.J.) filter paper was cut into 20×80-cm strips and wrapped around the inside wall of a 30×60×10-cm glass development chamber. One hundred milliliters of the appropriate mobile phase was added to the chamber, and the chambers were sealed and allowed to equilibrate. Chambers were considered equilibrated when the solvent front had completely ascended the filter paper. The mobile phase employed for the separation of phospholipid classes (lyso-phospholipids, sphingomyelin, phosphatidylcholine, phosphatidylserine, phosphatidylethanolamine and cardiolipin) was a modification of the solvent system described by Holub and Skeaf (“Nutritional regulation of cellular phosphatidylinositol,” in Methods in Enzymology, ed. Conn, P. M. (Academic Press, Inc., Orlando), pp. 234-243, 1987) consisting of chloroform/methanol/acetic acid/water (100:67:7:4, by volume).
For the separation of neutral lipid classes (free fatty acids, free sterols, triacylglycerides and cholesterol esters), a solvent system consisting of petroleum ether/diethyl ether/acetic acid (80:20:1, by volume) was used (Mangold, Thin Layer Chromatography—A Laboratory Handbook (Springer-Verlag, New York), 1969).
After the TLC plate was activated, the sample extracts were spotted onto the activated plate. As a general rule, samples were spotted at an estimated concentration such that no single lipid class was present at more than 25 jig per centimeter of plate width following chromatography. This ensured that the plate was not overloaded and minimized the risk of cross-contamination between lipid classes (cross-contamination is readily identified during sample analysis as each lipid class contains unique internal standards). […]

## C[C@H](Cc1ccc2c(c1)OC(C(=O)[O-])(C(=O)[O-])O2)NC[C@H](O)c1cccc(Cl)c1.[Na+].[Na+] [CL316,243]
Adipose, CE
  14:0: 65.2 nanomoles per gram
  16:0: 326.2 nanomoles per gram
  16:1n7: 85.7 nanomoles per gram
  18:0: 72.1 nanomoles per gram
  18:1n7: 50.6 nanomoles per gram
  18:1n9: 344.4 nanomoles per gram
Adipose, FFA
  14:0: 833.3 nanomoles per gram
  16:0: 6822.9 nanomoles per gram
  16:1n7: 2652.0 nanomoles per gram
  18:0: 1467.5 nanomoles per gram
  18:1n7: 864.3 nanomoles per gram
  18:1n9: 9845.4 nanomoles per gram
Adipose, PL
  14:0: 74.4 nanomoles per gram
  16:0: 1403.3 nanomoles per gram
  16:1n7: 291.2 nanomoles per gram
  18:0: 1249.1 nanomoles per gram
  18:1n7: 118.1 nanomoles per gram
  18:1n9: 794.7 nanomoles per gram
Adipose, TAG
  14:0: 79501.6 nanomoles per gram
  16:0: 666399.1 nanomoles per gram
  16:1n7: 265948.0 nanomoles per gram
  18:0: 73800.5 nanomoles per gram
  18:1n7: 49837.1 nanomoles per gram
  18:1n9: 793227.6 nanomoles per gram
Adipose, lipid class CE
  14:0: 4.5 percentage of total fatty acids
  16:0: 24.4 percentage of total fatty acids
  16:1n7: 6.8 percentage of total fatty acids
  18:0: 5.1 percentage of total fatty acids
  18:1n7: 3.5 percentage of total fatty acids
  18:1n9: 26.2 percentage of total fatty acids
  Saturates: 35.7 percentage of total fatty acids
  Total: 100.0 percentage of total fatty acids
  Total n7: 10.3 percentage of total fatty acids
  Total n9: 28.8 percentage of total fatty acids
Adipose, lipid class FFA
  14:0: 2.6 percentage of total fatty acids
  16:0: 21.7 percentage of total fatty acids
  16:1n7: 9.2 percentage of total fatty acids
  18:0: 6.8 percentage of total fatty acids
  18:1n7: 2.8 percentage of total fatty acids
  18:1n9: 30.7 percentage of total fatty acids
  Saturates: 31.8 percentage of total fatty acids
  Total: 100.0 percentage of total fatty acids
  Total n7: 12.0 percentage of total fatty acids
  Total n9: 31.5 percentage of total fatty acids
Adipose, lipid class PL
  14:0: 1.4 percentage of total fatty acids
  16:0: 19.9 percentage of total fatty acids
  16:1n7: 5.5 percentage of total fatty acids
  18:0: 16.1 percentage of total fatty acids
  18:1n7: 1.9 percentage of total fatty acids
  18:1n9: 14.6 percentage of total fatty acids
  Saturates: 39.0 percentage of total fatty acids
  Total: 100.0 percentage of total fatty acids
  Total n7: 7.4 percentage of total fatty acids
  Total n9: 15.3 percentage of total fatty acids
Adipose, lipid class TAG
  14:0: 3.3 percentage of total fatty acids
  16:0: 26.9 percentage of total fatty acids
  16:1n7: 10.8 percentage of total fatty acids
  18:0: 2.9 percentage of total fatty acids
  18:1n7: 2.0 percentage of total fatty acids
  18:1n9: 31.9 percentage of total fatty acids
  Saturates: 33.3 percentage of total fatty acids
  Total: 100.0 percentage of total fatty acids
  Total n7: 12.9 percentage of total fatty acids
  Total n9: 32.2 percentage of total fatty acids
CL316,243 4 weeks vs controls
  lipid concentrations in plasma: decreased
CL316,243 4 weeks vs controls (Table 7)
  lipid synthesis in tissues: decreased
CL316,243 4 weeks vs controls, heart, liver, adipose, plasma
  vaccenic acid concentrations in these lipid classes: typically decreased
Heart, CE
  14:0: 59.3 nanomoles per gram
  16:0: 187.4 nanomoles per gram
  16:1n7: 36.2 nanomoles per gram
  18:0: 85.3 nanomoles per gram
  18:1n7: 19.6 nanomoles per gram
  18:1n9: 389.5 nanomoles per gram
  Saturates: 366.8 nanomoles per gram
  Total n7: 55.8 nanomoles per gram
  Total n9: 405.7 nanomoles per gram
  Total nMole of FA: 1226.9 nanomoles per gram
Heart, CL
  14:0: 76.3 nanomoles per gram
  16:0: 231.1 nanomoles per gram
  16:1n7: 204.0 nanomoles per gram
  18:0: 397.1 nanomoles per gram
  18:1n7: 381.8 nanomoles per gram
  18:1n9: 956.2 nanomoles per gram
  Saturates: 776.3 nanomoles per gram
  Total n7: 585.8 nanomoles per gram
  Total n9: 1011.4 nanomoles per gram
  Total nMole of FA: 2975.1 nanomoles per gram
Heart, FFA
  14:0: 181.4 nanomoles per gram
  16:0: 1012.4 nanomoles per gram
  16:1n7: 156.8 nanomoles per gram
  18:0: 427.8 nanomoles per gram
  18:1n7: 139.4 nanomoles per gram
  18:1n9: 1964.0 nanomoles per gram
  Saturates: 1683.2 nanomoles per gram
  Total n7: 296.1 nanomoles per gram
  Total n9: 2017.6 nanomoles per gram
  Total nMole of FA: 6044.8 nanomoles per gram
Heart, PC
  14:0: 94.6 nanomoles per gram
  16:0: 8127.9 nanomoles per gram
  16:1n7: 108.7 nanomoles per gram
  18:0: 5235.9 nanomoles per gram
  18:1n7: 568.2 nanomoles per gram
  18:1n9: 1990.2 nanomoles per gram
  Saturates: 13577.6 nanomoles per gram
  Total n7: 676.9 nanomoles per gram
  Total n9: 2052.1 nanomoles per gram
  Total nMole of FA: 15087.3 nanomoles per gram
Heart, PE
  14:0: 27.5 nanomoles per gram
  16:0: 1814.0 nanomoles per gram
  16:1n7: 59.6 nanomoles per gram
  18:0: 5241.4 nanomoles per gram
  18:1n7: 250.5 nanomoles per gram
  18:1n9: 934.9 nanomoles per gram
Heart, PL
  14:0: 170.5 nanomoles per gram
  16:0: 10799.7 nanomoles per gram
  16:1n7: 344.7 nanomoles per gram
  18:0: 13320.8 nanomoles per gram
  18:1n7: 1181.0 nanomoles per gram
  18:1n9: 4121.5 nanomoles per gram
Heart, PS/I
  14:0: 33.4 nanomoles per gram
